Experimental data reported in US20100311714A1, “1H-IMIDAZO[4,5-c]QUINOLINONE COMPOUNDS” (priority 2009, published 2010).
Converted amounts (≈) assume the structure as drawn. Where two headings read alike, the source gives them in different places.

Experiments:
[1] = High-throughput equilibrium solubility at pH 6.8; assay type: physicochemical; conditions: pH 6.8, aqueous buffer, thermodynamic from solid; read-out: HT-Eq Sol/pH 6.8
Outline: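 Following the procedure of Zhou et al. (2007), compound solubility was determined at pH 6.8.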

[2] = target: T1, PI3K delta (Homo sapiens, UniProt O00329); assay: PI3K delta kinase assay (Kinase-Glo luminescence); assay type: biochemical
T1 construct: for the full-length p110-d subunit are generated and fused by overlapping PCR; His tag (C); made in house; host or cells: baculovirus BV1060; Tn5 (Trichoplusia ni) or TiniPro insect cells
Outline: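 IC50s derive from 8-point inhibition curves fitted to a 4-parameter logistic model. Reaction: 10 nM purified p110δ/p85 iSH2 fusion, 1 μM ATP, 10 μg/mL PI substrate, pH 7.5 Tris buffer with MgCl2, NaCl, CHAPS and DTT, run 60 min at room temperature; remaining ATP read by Kinase-Glo luminescence.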

T1 sequence (O00329 with tags, fused parts or gaps limits assumed): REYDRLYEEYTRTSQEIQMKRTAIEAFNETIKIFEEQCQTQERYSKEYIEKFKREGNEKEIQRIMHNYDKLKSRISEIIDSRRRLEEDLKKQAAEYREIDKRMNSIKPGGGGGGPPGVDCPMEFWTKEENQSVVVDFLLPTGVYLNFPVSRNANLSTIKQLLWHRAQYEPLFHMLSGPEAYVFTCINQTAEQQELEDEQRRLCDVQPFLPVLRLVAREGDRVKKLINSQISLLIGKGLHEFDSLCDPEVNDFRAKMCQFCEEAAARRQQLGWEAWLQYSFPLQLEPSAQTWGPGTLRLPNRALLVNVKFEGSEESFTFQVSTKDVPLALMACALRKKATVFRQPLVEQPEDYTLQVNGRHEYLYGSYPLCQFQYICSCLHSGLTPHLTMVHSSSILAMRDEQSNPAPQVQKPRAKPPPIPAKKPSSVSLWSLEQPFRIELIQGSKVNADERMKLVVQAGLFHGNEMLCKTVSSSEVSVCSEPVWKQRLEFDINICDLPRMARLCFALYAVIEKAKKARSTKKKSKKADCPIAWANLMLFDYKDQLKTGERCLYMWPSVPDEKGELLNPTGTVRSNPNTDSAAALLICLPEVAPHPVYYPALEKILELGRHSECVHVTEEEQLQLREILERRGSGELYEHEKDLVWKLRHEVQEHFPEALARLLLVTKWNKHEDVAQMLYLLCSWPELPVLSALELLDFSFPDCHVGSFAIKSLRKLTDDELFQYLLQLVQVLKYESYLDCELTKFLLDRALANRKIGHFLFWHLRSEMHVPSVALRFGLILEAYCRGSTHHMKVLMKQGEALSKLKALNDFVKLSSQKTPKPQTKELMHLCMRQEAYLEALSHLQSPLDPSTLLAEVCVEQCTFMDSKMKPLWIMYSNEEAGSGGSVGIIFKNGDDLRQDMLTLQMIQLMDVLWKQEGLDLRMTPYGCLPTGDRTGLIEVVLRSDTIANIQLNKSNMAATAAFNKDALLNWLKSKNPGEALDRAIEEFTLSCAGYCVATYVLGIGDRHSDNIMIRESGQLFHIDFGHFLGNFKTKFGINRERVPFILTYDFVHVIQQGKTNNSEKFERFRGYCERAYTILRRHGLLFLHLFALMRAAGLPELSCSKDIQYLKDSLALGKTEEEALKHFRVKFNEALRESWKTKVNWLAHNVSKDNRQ

SMILES	solubility thermodynamic [1] [µg/mL]	IC50 ([2]; read-out: EPK_PI3Kdelta/IC50) [nM]	IC50 ([2]; read-out: PI3Kdelta/IC50) [nM]
Cc1nc(F)ccc1-n1c(=O)n(C)c2cnc3ccc(-c4cnc(N)c(CO)c4)cc3c21 [Example 7.17, 8-(6-Amino-5-hydroxymethyl-pyridin-3-yl)-1-(6-fluoro-2-methyl-pyridin-3-yl)-3-methyl-1,3-dihydro-imidazo[4,5-c]quinolin-2-one]	> 430	20	–
COCc1ncc(-c2ccc3ncc4c(c3c2)n(-c2ccc(OC)nc2OC)c(=O)n4C)cc1OC [Example 8.12, 1-(2,6-Dimethoxy-pyridin-3-yl)-8-(5-methoxy-6-methoxymethyl-pyridin-3-yl)-3-methyl-1,3-dihydro-imidazo[4,5-c]quinolin-2-one]	13 (≈ 26.7 µM)	42	–
Cc1nc(F)ccc1-n1c(=O)n(C)c2cnc3ccc(-c4cncc(N)c4)cc3c21 [Example 7.16, 8-(5-Amino-pyridin-3-yl)-1-(6-fluoro-2-methyl-pyridin-3-yl)-3-methyl-1,3-dihydro-imidazo[4,5-c]quinolin-2-one]	187 (≈ 467 µM)	56.5	–
CNc1ncc(-c2ccc3ncc4c(c3c2)n(-c2ccc(F)nc2C)c(=O)n4C)cc1F [Example 7.12, 8-(5-Fluoro-6-methylamino-pyridin-3-yl)-1-(6-fluoro-2-methyl-pyridin-3-yl)-3-methyl-1,3-dihydro-imidazo[4,5-c]quinolin-2-one]	3 (≈ 6.94 µM)	12	–
CCNc1cc(-c2ccc3ncc4c(c3c2)n(-c2ccc(F)nc2C)c(=O)n4C)cnc1CO [Example 7.9, 8-(5-Ethylamino-6-hydroxymethyl-pyridin-3-yl)-1-(6-fluoro-2-methyl-pyridin-3-yl)-3-methyl-1,3-dihydro-imidazo[4,5-c]quinolin-2-one]	299 (≈ 652 µM)	36	–
CCNc1cc(-c2ccc3ncc4c(c3c2)n(-c2ccc(OCCOC)nc2C)c(=O)n4C)cnc1C [Example 13.4, 8-(5-Ethylamino-6-methyl-pyridin-3-yl)-1-[6-(2-methoxy-ethoxy)-2-methyl-pyridin-3-yl]-3-methyl-1,3-dihydro-imidazo[4,5-c]quinolin-2-one]	7 (≈ 14 µM)	15	–
CCOc1ccc(-c2ccc3ncc4c(c3c2)n(-c2ccc(OCCOC)nc2C)c(=O)n4C)cn1 [Example 13.1, 8-(6-Ethoxy-pyridin-3-yl)-1-[6-(2-methoxy-ethoxy)-2-methyl-pyridin-3-yl]-3-methyl-1,3-dihydro-imidazo[4,5-c]quinolin-2-one]	3 (≈ 6.18 µM)	742	–
COc1nc(N2CCNCC2)ccc1-n1c(=O)n(C)c2cnc3ccc(-c4cnc(N(C)C)nc4)cc3c21 [Example 9.4, 8-(2-Dimethylamino-pyrimidin-5-yl)-1-(2-methoxy-6-piperazin-1-yl-pyridin-3-yl)-3-methyl-1,3-dihydro-imidazo[4,5-c]quinolin-2-one]	> 512	17	–
COc1ccc(-n2c(=O)n(C)c3cnc4ccc(-c5ccc6nccn6c5)cc4c32)c(OC)n1 [Example 8.10, 1-(2,6-Dimethoxy-pyridin-3-yl)-8-imidazo[1,2-a]pyridin-6-yl-3-methyl-1,3-dihydro-imidazo[4,5-c]quinolin-2-one]	47 (≈ 104 µM)	192	–
COCCOc1ccc(-n2c(=O)n(C)c3cnc4ccc(-c5cnc(N)c(C(F)(F)F)c5)cc4c32)c(C)n1 [Example 13.2, 8-(6-Amino-5-trifluoromethyl-pyridin-3-yl)-1-[6-(2-methoxy-ethoxy)-2-methyl-pyridin-3-yl]-3-methyl-1,3-dihydro-imidazo[4,5-c]quinolin-2-one]	27 (≈ 51.5 µM)	14	–
CCOc1ccc(-c2ccc3ncc4c(c3c2)n(-c2cccnc2C)c(=O)n4C)cn1 [Example 2.1, 8-(6-Ethoxy-pyridin-3-yl)-3-methyl-1-(2-methyl-pyridin-3-yl)-1,3-dihydro-imidazo[4,5-c]quinolin-2-one]	3 (≈ 7.29 µM)	–	94
CNc1ccc(-c2ccc3ncc4c(c3c2)n(-c2ccc(OCCOC)nc2C)c(=O)n4C)cn1 [Example 13.3, 1-[6-(2-Methoxy-ethoxy)-2-methyl-pyridin-3-yl]-3-methyl-8-(6-methylamino-pyridin-3-yl)-1,3-dihydro-imidazo[4,5-c]quinolin-2-one]	10 (≈ 21.3 µM)	26	–
CCNc1cc(-c2ccc3ncc4c(c3c2)n(-c2ccc(OC)nc2C)c(=O)n4C)cnc1C [Example 11.7, 8-(5-Ethylamino-6-methyl-pyridin-3-yl)-1-(6-methoxy-2-methyl-pyridin-3-yl)-3-methyl-1,3-dihydro-imidazo[4,5-c]quinolin-2-one]	3 (≈ 6.6 µM)	3	–

Second part, the compound after the results:

solubility thermodynamic [1] [µg/mL]	IC50 ([2]; read-out: EPK_PI3Kdelta/IC50) [nM]	IC50 ([2]; read-out: PI3Kdelta/IC50) [nM]	SMILES
28 (≈ 59.6 µM)	34	–	COCC(=O)Nc1ccc(-n2c(=O)n(C)c3cnc4ccc(-c5cncc(N)c5)cc4c32)c(C)n1 [Example 20.1, N-{5-[8-(5-Amino-pyridin-3-yl)-3-methyl-2-oxo-2,3-dihydro-imidazo[4,5-c]quinolin-1-yl]-6-methyl-pyridin-2-yl}-2-methoxy-acetamide]
3 (≈ 6.4 µM)	27	–	Cc1cc(F)ncc1-n1c(=O)n(C)c2cnc3ccc(-c4cnc(N)c(C(F)(F)F)c4)cc3c21 [Example 16.1, 8-(6-Amino-5-trifluoromethyl-pyridin-3-yl)-1-(6-fluoro-4-methyl-pyridin-3-yl)-3-methyl-1,3-dihydro-imidazo[4,5-c]quinolin-2-one]
12 (≈ 27.4 µM)	46	–	Cc1ccc(-n2c(=O)n(C)c3cnc4ccc(-c5cncc(NC(C)C)c5)cc4c32)c(C)n1 [Example 14.8, 1-(2,6-Dimethyl-pyridin-3-yl)-8-(5-isopropylamino-pyridin-3-yl)-3-methyl-1,3-dihydro-imidazo[4,5-c]quinolin-2-one]
37 (≈ 80.1 µM)	4	–	COc1ccc(-n2c(=O)n(C)c3cnc4ccc(-c5cnc(N(C)C)nc5)cc4c32)c(Cl)n1 [Example 18.3, 1-(2-Chloro-6-methoxy-pyridin-3-yl)-8-(2-dimethylamino-pyrimidin-5-yl)-3-methyl-1,3-dihydro-imidazo[4,5-c]quinolin-2-one]
27 (≈ 65 µM)	113	–	CNc1ncc(-c2ccc3ncc4c(c3c2)n(-c2cnc(F)cc2C)c(=O)n4C)cn1 [Example 16.3, 1-(6-Fluoro-4-methyl-pyridin-3-yl)-3-methyl-8-(2-methylamino-pyrimidin-5-yl)-1,3-dihydro-imidazo[4,5-c]quinolin-2-one]
55 (≈ 133 µM)	207	–	CNc1ccc(-c2ccc3ncc4c(c3c2)n(-c2cnc(F)cc2C)c(=O)n4C)cn1 [Example 16.4, 1-(6-Fluoro-4-methyl-pyridin-3-yl)-3-methyl-8-(6-methylamino-pyridin-3-yl)-1,3-dihydro-imidazo[4,5-c]quinolin-2-one]
10 (≈ 21.1 µM)	22	–	CCNc1cc(-c2ccc3ncc4c(c3c2)n(-c2ccc(OC)nc2Cl)c(=O)n4C)cnc1C [Example 18.1, 1-(2-Chloro-6-methoxy-pyridin-3-yl)-8-(5-ethylamino-6-methyl-pyridin-3-yl)-3-methyl-1,3-dihydro-imidazo[4,5-c]quinolin-2-one]
34 (≈ 75 µM)	28	–	CNc1cc(-c2ccc3ncc4c(c3c2)n(-c2ccc(N(C)C)nc2C)c(=O)n4C)cnc1C [Example 19.2, 1-(6-Dimethylamino-2-methyl-pyridin-3-yl)-3-methyl-8-(6-methyl-5-methylamino-pyridin-3-yl)-1,3-dihydro-imidazo[4,5-c]quinolin-2-one]
5 (≈ 11 µM)	395	–	CCOc1ccc(-c2ccc3ncc4c(c3c2)n(-c2ccc(N(C)C)nc2C)c(=O)n4C)cn1 [Example 19.3, 1-(6-Dimethylamino-2-methyl-pyridin-3-yl)-8-(6-ethoxy-pyridin-3-yl)-3-methyl-1,3-dihydro-imidazo[4,5-c]quinolin-2-one]
110 (≈ 234 µM)	24	–	COc1cc(-c2ccc3ncc4c(c3c2)n(-c2ccc(N(C)C)nc2C)c(=O)n4C)cnc1CO [Example 19.4, 1-(6-Dimethylamino-2-methyl-pyridin-3-yl)-8-(6-hydroxymethyl-5-methoxy-pyridin-3-yl)-3-methyl-1,3-dihydro-imidazo[4,5-c]quinolin-2-one]
56 (≈ 119 µM)	45	–	COCCN(C)c1ccc(-n2c(=O)n(C)c3cnc4ccc(-c5cncc(N)c5)cc4c32)c(C)n1 [Example 15.8, 8-(5-Amino-pyridin-3-yl)-1-{6-[(2-methoxy-ethyl)-methyl-amino]-2-methyl-pyridin-3-yl}-3-methyl-1,3-dihydro-imidazo[4,5-c]quinolin-2-one]
